`CCOC(=O)CC(C)(O)c1ccc(-c2ccc(F)cc2F)cc1` (stereo not given) came in with a melting point of 96 to 97 °C.
Then `c1ccn(NC2=NCCN2)c1`, with 183 to 184 °C; and `O=C(Nc1ccc2c(c1)CCNO2)c1cc2cc(F)ccc2n1Cc1cccc(F)c1`, with 216 to 217 °C.
The compound `COc1cc(C(CBr)(OC)OC)ccc1OS(=O)(=O)c1ccccc1` came in with a melting point of 134 °C.
In the case of `CN(C)Cc1ccc(CSCCNC(=S)NC(=O)c2ccccc2)o1` it was 83 to 85 °C.
Then `COc1cc(O)c(C=O)c(-c2nc(C)no2)c1C`, with 135 to 136 °C; and `CCOC(=O)c1sc2cc(COc3cccnc3)ccc2c1S(=O)c1cccc(OC)c1` (stereo not given), with 113 to 115 °C; and `CC(C)CCSc1cc(C(=O)O)cc(N)c1Oc1ccccc1`, with 132 to 133 °C.
Take `c1ccc(C(c2ccccc2)N2CCN(CCCn3c(C4CCCCC4)nc4ccccc43)CC2)cc1`: the melting point came to 115 °C.
In the case of `COc1nc(N)nc2c1ncn2C1OC(CO)C(OC(=O)c2ccccc2)C1O` (stereo not given) it was 155 to 157 °C; in that of `Nc1ncnc2sc(Cc3ccccc3)c(-c3ccc(NS(=O)(=O)c4ccccc4)cc3)c12`, 100 to 105 °C.
Take `Cc1cc(C(=O)NCc2ccc(Br)cc2F)c(O)cc1F`: the melting point was 149 to 150 °C.
Consider `CCOC(=O)c1cnc2nn(CC)cc2c1OCC`, for which the melting point fell in the range of 111 to 113 °C.
For the compound `Cn1c(-c2cc(C(F)(F)F)nn2-c2ncccc2Cl)nc2c(Cl)cccc2c1=O`, the melting point fell in the range of 155 to 157 °C.
Then `O=C(O)COc1cc(Cl)ccc1C(=O)NCc1ccc(OC(F)(F)F)cc1`, with 184 to 185 °C.
Regarding `Cc1ccc(S(=O)(=O)c2nc(C(N)=O)n[nH]2)cc1`, the melting point was in the range of 148 to 150 °C.
In the case of `O=C(Nc1cccc2ccccc12)OCCCC(O)c1ccccc1` (stereo not given) it was 92 °C.
In turn, `CC1(C)CC(Oc2nc(Cl)nc(N3C(C)(C)CCCC3(C)C)n2)CC(C)(C)N1O` displayed a melting point of 152 to 153 °C.
Then `CC1(C)CC(NC(=O)C(=O)NNC(=O)COc2ccc(C(=O)c3ccccc3)c(O)c2)CC(C)(C)N1`, with 191 to 195 °C; and `NC(=O)CNC(=O)C1(N2CCCC2=O)CC1`, with 180 °C.
`CC(=O)NCCc1cn(S(=O)(=O)c2c(Cl)nc3sccn23)c2ccccc12` came in with a melting point of 150 to 152 °C.
The compound `CC1CCC2Oc3ccc(Cl)cc3C(=O)N2O1` (stereo not given) had a melting point of 210 to 213 °C.
In the case of `OC1CCCCC1c1ncc[nH]1` (stereo not given) it was 133 to 134 °C.
As to `CNc1nnc2ccc(-c3cccc(N(C)C(C)=O)c3)nn12`, the melting point is 213 to 215 °C.
Then `CC1=C(C(=O)OCCO)C(c2cccc([N+](=O)[O-])c2)C2=C(CCCS2(=O)=O)N1` (stereo not given), with 233 to 235 °C; and `COc1ccc(CCNc2nc(O)c(NC(=O)c3ccco3)c(O)n2)cc1`, with more than 250 °C; and `CC1(c2cccs2)Cc2cc(OCC(=O)O)c(Cl)c(Cl)c2C1=O` (stereo not given), with 161 to 162 °C.
In the case of `CCCOc1nsc(NC(=O)C(C)C)c1C#N` it was 220 to 221 °C.
In the case of `CSc1ccc(-c2coc3ccc(-c4nnc(C)o4)cc23)cc1OC(F)(F)F` it was 185 to 186 °C; in that of `Cc1c(C(=O)Nc2ccc(N3CCCCC3)c(C#N)c2)cnn1-c1ccc(F)cc1`, 196 to 197 °C.
`Cc1c(C(=O)Nc2ccc(N3CCCN(CCO)CC3)c(C#N)c2)cnn1-c1ccc(F)cc1`: the melting point was 124 °C.
`CN1C(=O)CC[C@]2(C)c3ccc(-c4ccc(F)c(Cl)c4)cc3CC[C@@H]12` registered a melting point of 114 to 116 °C.
Regarding `CC(=O)OCCN(C(=O)CBr)c1ccc(Cl)cc1C(=O)c1ccccc1F`, the melting point fell in the range of 84 to 88 °C.
`COc1cc(Cc2cnc(N)nc2N)cc2cccnc12` showed a melting point of 285 to 287 °C.
Then `CCCCCCCCCCCCCCCCCCOCC(Br)COCCCCCCCCCCCCCCCCCC`, with 47.9 to 48.7 °C; and `COCc1cnc2c(N)cccc2c1Cl`, with 107 °C.
The compound `COC(=O)[C@@H]1CCCCCOc2ccc(cc2)C[C@H](NC(=O)OCc2ccccc2)C(=O)N[C@@H](CC(C)C)C(=O)N1` yielded a melting point of 91 to 93 °C.
The compound `Fc1cc(Cc2cccs2)c(Cl)cc1Cl` came in with a melting point of 60 to 61 °C.
In the case of `CC(C)N1CC(=O)C(C#N)=C1N` it was 285 to 290 °C; in that of `Nc1ccc(C(=O)O)c2ccccc12`, 169 to 171 °C.
Take `O=C1NCCN(NC(=O)c2cc(OCc3ccccc3)c(OCc3ccccc3)cn2)C1=O`: the melting point was determined as 231 °C.
For `C=C(C)COc1cc2c(c(C)c1C)N(C=O)CC2`, the melting point was in the range of 81 to 83 °C.
In the case of `Cc1cc(C)c2nc(C3CC3)n(Cc3ccc(C4(C(=O)O)CCCCC4)s3)c2n1` it was 175 to 176 °C; in that of `CC(C)(C)NC(=O)c1cc(C(C)(C)C)c(O)c(C(C)(C)C)c1`, 207 to 208 °C; in that of `CC[C@H](CC(=O)NC(=O)OCc1ccccc1)Nc1ccc(C(F)(F)F)cc1`, 101 °C.
`Cc1ccc2c3c(ccc2n1)OC[C@H](CN1CCN(c2ccc4ccccc4n2)C[C@@H]1C)O3`: the melting point lay in the range of 78 to 82 °C.
In the case of `O=Cc1cc(O)c(O)c(C=O)c1CCCCC(=O)O`, the melting point was 148 to 152 °C.
The compound `COc1cccc(Cn2c(C)c(CC(=O)O)c3cc(OCc4csc(-c5ccccc5)n4)ccc32)c1` registered a melting point of 162 to 163 °C.
Then `COc1nc2c(Cl)c(Cl)c(Cl)c(Cl)c2n1COCCO`, with 139 °C; and `CCc1c(N)nc(-c2ccc(C(F)(F)F)cc2)nc1C(=O)OC`, with 123 to 124 °C.
Then `CC(=O)Nc1cc2c(c(C(=O)O)c1)NCCC2`, with 258 to 259 °C; and `CCCCCCCCCCCCc1cc(CO)on1`, with 61 to 63 °C; and `CCOC(=O)c1cn(C2CC2)c2c(CN3CCCC3)c(N3CCOCC3)c(F)cc2c1=O`, with 227 to 232 °C.
The compound `COc1ccc(C2COc3cc(OC(=O)C(C)(C)C)ccc3C2(O)Cc2ccc(OCc3ccccc3)cc2)cc1` (stereo not given) returned a melting point of 104 to 111 °C.
The compound `CCOC(=O)c1c(CCc2ccccc2)nc2c(cnn2CC)c1O` returned a melting point of 153 to 155 °C.
In turn, `CC(C)(CO)[C@@H](O)C#N` registered a melting point of 110 °C.
Compound `COC(=O)Cc1nc(-c2ccc(OC)cc2)c(-c2ccc(OC)cc2)s1` had a melting point of 79 to 81.5 °C.
Regarding `COc1cc2cccc3c2c(n1)-c1ccccc1C3=O`, the melting point was 190 to 192 °C.
Then `COc1ccc(SC2CC(=O)NC2=O)cc1` (stereo not given), with 93 to 94 °C; and `NCC(=O)NCC(=O)Nc1ccc(Cl)cc1C(=O)c1ccccc1`, with 136 to 138 °C.
The compound `CCN(CC)C(=O)Cc1c(-c2ccc(F)cc2)nc2c(C)cc(C)nn12` registered a melting point of 139 to 143 °C.
In the case of `COC(=O)c1cc(=O)n(C)c2ccc(C(=O)c3ccc(Cl)cc3)cc12` it was 182 °C.
In the case of `O=C(O)C(=O)Cc1ccsc1` it was 203 to 204 °C; in that of `COC(=O)c1ccc2sc(C)cc2c1`, 97 to 98 °C.
In the case of `CCOC(=O)C1=CC(C(=O)c2cc(C)ccc2O)=CN2CCc3c([nH]c4ccc(OC)cc34)C12C(=O)OCC` (stereo not given) it was 228 °C.

The values are drawn from a melting point compilation (Tetko et al.; mined from patent text by program, amines drawn as free bases though some values may be those of a salt).
